This is an account of results in US20240116918A1, “SUBSTITUTED TRICYCLIC COMPOUND AS PRMT5 INHIBITOR AND USE THEREOF” (NANJING SANHOME PHARMACEUTICAL CO., LTD., priority 2019, published 2024).

Series [1] concerns the target PRMT5 (Homo sapiens (Human), UniProt O14744). Kind of series: In vitro evaluation of kinase activity (PRMT5 enzymatic assay, [3H]-SAM FlashPlate). The format is biochemical. As to conditions: polypeptide substrate H4(1-21)S1ac 100 nM, [3H]-SAM 250 nM, 25° C., 60 min; read-out: Enzyme IC50 PRMT5. The procedure:
Compounds: the compounds of the present invention prepared in the above examples. Each compound was formulated into a 10 mM stock solution with DMSO, and finally diluted into 10 concentrations for detection, with the final concentrations being 10000.00 nM, 3333.33 nM, 1111.11 nM, 370.37 nM, 123.46 nM, 41.15 nM, 13.72 nM, 4.57 nM, 1.52 nM, and 0.51 nM.
Reagents and consumables: PRMTS, purchased from Active Motif, Cat. No. 31921; polypeptide substrate H4(1-21)S1ac, purchased from Gill Biochemical (Shanghai) Co., Ltd., Cat. No. 342095; [^3H]-SAM, purchased From PerkinElmer, Cat. No. NET155V001MC; SAM, purchased from Sigma, Cat. No. A7007-100MG; SAH, purchased from Sigma, Cat. No. A9384-25MG; DTT, purchased from Sangon Bioengineering (Shanghai) Co., Ltd., Cat. No. A620058-0005. Corning-3657, purchased from Corning, Cat. No. 3657; Echo Qualified 384-Well, purchased from Labcyte, Cat. No. P-05525; FlashPlate, purchased from Perkin Elmer, Cat. No. SMP410J001PK.
2.1. Preparation of reaction buffer and reaction stop solution: the composition of 1× reaction buffer was 10 mM Tris-HCl, pH 8.0; 0.01% Tween-20; and 1 mM DTT. The composition of the reaction stop solution was 125 μM […] solution.
The compounds were dissolved in 100% DMSO to prepare 10 mM stock solutions and then diluted to desired concentrations on an Echo 384 well plate.
250 nL of the compounds diluted above were transferred from the Echo 384 well plate to a 384 well reaction plate using the Echo550 instrument.
PRMT5 was added to 1× reaction buffer to form 1.67× enzyme solution.
The polypeptide substrate and [^3H]-SAM were added to 1× reaction buffer to form 2.5× substrate solution (the final concentrations were 100 nM and 250 nM, respectively).
15 μL of 1.67× enzyme solution was added to the wells of a 384 well reaction plate. For control wells without enzymatic activity, the enzyme solution was replaced with 15 μL of 1× reaction buffer. The plate was centrifuged at 1000 rpm for 1 min and incubated at room temperature for 15 min. […]

In series [2] the target is hERG potassium channel (Homo sapiens (Human), UniProt Q12809).
Chain of hERG potassium channel (Q12809 whole entry): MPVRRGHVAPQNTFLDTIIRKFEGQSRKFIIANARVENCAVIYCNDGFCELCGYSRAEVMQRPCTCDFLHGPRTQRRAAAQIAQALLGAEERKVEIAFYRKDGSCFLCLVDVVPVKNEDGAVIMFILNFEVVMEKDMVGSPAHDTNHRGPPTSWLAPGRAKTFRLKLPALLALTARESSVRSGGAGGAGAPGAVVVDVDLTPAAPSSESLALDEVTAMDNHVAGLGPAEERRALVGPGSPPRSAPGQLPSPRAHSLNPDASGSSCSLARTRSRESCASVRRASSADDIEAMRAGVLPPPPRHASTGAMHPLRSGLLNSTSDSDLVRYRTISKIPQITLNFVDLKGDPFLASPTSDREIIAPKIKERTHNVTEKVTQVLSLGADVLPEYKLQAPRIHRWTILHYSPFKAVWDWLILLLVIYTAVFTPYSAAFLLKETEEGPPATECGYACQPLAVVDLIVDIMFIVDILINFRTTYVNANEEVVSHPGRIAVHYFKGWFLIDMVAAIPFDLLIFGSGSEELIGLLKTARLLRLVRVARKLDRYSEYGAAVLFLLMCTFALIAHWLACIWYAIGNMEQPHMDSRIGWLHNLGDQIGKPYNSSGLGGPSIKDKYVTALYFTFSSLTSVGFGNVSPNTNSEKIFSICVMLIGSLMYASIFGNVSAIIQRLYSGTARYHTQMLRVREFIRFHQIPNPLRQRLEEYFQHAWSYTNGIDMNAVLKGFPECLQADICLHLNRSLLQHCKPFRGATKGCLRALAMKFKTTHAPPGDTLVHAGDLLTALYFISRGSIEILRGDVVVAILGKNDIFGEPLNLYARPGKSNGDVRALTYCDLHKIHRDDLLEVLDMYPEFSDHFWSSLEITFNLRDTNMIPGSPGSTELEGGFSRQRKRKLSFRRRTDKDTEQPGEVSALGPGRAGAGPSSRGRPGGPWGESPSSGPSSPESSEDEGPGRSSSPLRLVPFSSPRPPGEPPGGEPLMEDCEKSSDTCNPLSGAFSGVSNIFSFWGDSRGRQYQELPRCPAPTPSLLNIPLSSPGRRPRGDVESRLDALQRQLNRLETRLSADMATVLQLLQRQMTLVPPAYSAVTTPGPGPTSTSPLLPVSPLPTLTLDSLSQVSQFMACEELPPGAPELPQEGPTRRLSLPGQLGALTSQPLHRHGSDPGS
Method: Preparation of test solvents: preparation of extracellular fluid (mM): 137 NaCl, 4 KCl, 1.8 CaCl2, 1 MgCl2, 10 glucose and 10 HEPES (pH 7.4); preparation of intracellular fluid (mM): 130 KCl, 1 MgCl2, 5 EGTA, 5 MgATP and 10 HEPES (pH 7.2); preparation of negative control: extracellular fluid+0.3% DMSO; positive control: quinidine.
Compound treatment: The compound was weighed and dissolved in DMSO to prepare a 10 mM stock solution, which was diluted with DMSO to form secondary stock solutions with concentrations of 3.3, 1.1, 0.37 and 0.12 mM. 90 μL each of the stock solution and the secondary stock solutions was diluted into 30 mL of extracellular fluid for electrophysiological detection. The final concentrations of the compound were 30, 10, 3.3, 1.1 and 0.37 μM, and the final concentration of DMSO was 3:1000.
Stably transfected cell culture: The cell line was originated from HEK-293 cells overexpressing hERG potassium ion channel. […] The cells were cultured in an incubator at 37° C. and 5% CO2. When the cell density reaches 80% of the petri dish, the cells were first pre-washed with phosphate buffered saline (PBS), then digested with trypsin/EDTA for 2-3 min. Cell culture medium was added to stop the digestion. The cells were gently blown down and transferred to a centrifuge tube, and centrifuged at 1000 rpm for 3 min. The supernatant was discarded, cell culture medium was added, and the cells were mixed uniformly by gentle tapping. After that, the mixture was transferred to a petri dish for subculture, or the cells were dripped on a round glass slide and placed on a petri dish for the cells to adhere for experiments.
Experiments on electrophysiological manual patch-clamp system: The stably transfected cells were inoculated on a glass slide with a cell density lower than 50%, and cultured overnight. The experimental cells were transferred to a bath of about 1 mL embedded in an inverted microscope platform, and the extracellular fluid was perfused at a perfusion rate of 2.7 mL/min. After 5 minutes of stabilization, the experiment was started. Membrane currents were recorded using HEKA EPC-10 patch clamp amplifier and [sequence] acquisition system. All the experiments were performed at room temperature (22-24° C.). Electrodes were drawn straight using P-97 microelectrode drawing instrument (BF150-110-10) in the experiments. The inner diameter of the electrode was 1-1.5 mm, and the pipette resistance after filling with the inner liquid was 2-4 MΩ. The electrophysiological stimulation scheme of hERG potassium channel included: first setting the membrane voltage at −80 mV, applying a stimulation to the cells at +20 mV voltage for 2 s to activate the hERG potassium channel, and then repolarizing to −50 mV for 5 s to generate an outward tail current. The stimulation frequency was once every 15 s. The current value was the peak value of the tail current. The channel currents were recorded in the whole-cell recording mode. Firstly, the extracellular fluid was perfused (about 2 mL per minute) while recording was continued. When the current was stabilized (the current decay (Run-Down) was less than 5% within 5 minutes), the peak value of the tail current was the control current value. Then, the extracellular fluid containing the drug to be tested was perfused while the recording was continued until the inhibitory effect of the drug on the hERG current reached a steady state. At this time, the peak value of the tail current was the current value after drug addition. […]

Chain of PRMT5 (O14744 whole entry): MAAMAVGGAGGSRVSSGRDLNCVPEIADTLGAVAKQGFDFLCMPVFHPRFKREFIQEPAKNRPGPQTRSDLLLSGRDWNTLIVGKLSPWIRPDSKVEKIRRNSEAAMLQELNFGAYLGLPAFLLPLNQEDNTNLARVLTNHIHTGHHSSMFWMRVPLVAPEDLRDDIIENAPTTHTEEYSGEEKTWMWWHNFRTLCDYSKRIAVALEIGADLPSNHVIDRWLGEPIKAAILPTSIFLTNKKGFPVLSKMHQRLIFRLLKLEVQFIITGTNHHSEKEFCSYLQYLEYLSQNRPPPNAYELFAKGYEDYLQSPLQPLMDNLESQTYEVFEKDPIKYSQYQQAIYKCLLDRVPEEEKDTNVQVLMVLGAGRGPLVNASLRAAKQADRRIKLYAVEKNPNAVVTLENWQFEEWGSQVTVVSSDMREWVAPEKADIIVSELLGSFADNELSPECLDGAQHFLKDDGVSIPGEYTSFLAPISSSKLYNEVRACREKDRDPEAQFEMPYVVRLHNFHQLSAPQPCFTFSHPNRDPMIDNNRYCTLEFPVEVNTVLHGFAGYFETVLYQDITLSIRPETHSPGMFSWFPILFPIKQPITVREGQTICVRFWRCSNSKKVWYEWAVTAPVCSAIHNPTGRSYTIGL
Chain of PRMT5 (Q9BQA1 whole entry partner): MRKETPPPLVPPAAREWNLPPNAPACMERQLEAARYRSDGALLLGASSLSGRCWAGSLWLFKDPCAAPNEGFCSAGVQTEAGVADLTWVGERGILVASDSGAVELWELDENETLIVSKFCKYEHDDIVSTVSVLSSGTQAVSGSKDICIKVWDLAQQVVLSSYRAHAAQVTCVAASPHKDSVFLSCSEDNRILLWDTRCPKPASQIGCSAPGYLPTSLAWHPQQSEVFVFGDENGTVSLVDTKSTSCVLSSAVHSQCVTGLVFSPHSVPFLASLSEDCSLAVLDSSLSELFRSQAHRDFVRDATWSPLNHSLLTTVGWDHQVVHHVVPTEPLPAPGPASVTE

`CC(=O)N1CCC(Nc2cc3c(cn2)C2(CC2)CN(C[C@H](O)CN2CCc4ccccc4C2)C3=O)CC1` [Example 1, (R)-7′-((1-acetylpiperidin-4-yl)amino)-2′-(3-(3,4-dihydroisoquinolin-2(1H)-yl)-2-hydroxypropyl)-2′,3′-dihydro-1′H-spiro[cyclopropane-1,4′-[2,6]naphthyridin]-1′-one]: the IC50 (as a rule, the midpoint of a concentration-inhibition curve) in series [1] was 32.7 nM.
In the case of `CC(=O)N1CC2(CC(Nc3cc4c(cn3)C3(CC3)CN(C[C@H](O)CN3CCc5ccccc5C3)C4=O)C2)C1` [Example 2, (R)-7′-((2-acetyl-2-azaspiro[3.3]hept-6-yl)amino)-2′-(3-(3,4-dihydroisoquinolin-2(1H)-yl)-2-hydroxypropyl)-2′,3′-dihydro-1′H-spiro[cyclopropane-1,4′-[2,6]naphthyridin]-1-one], the half-inhibitory concentration (IC50) in series [1] was determined as 49.7 nM. Further, the “inhibitory effect on the hERG potassium channel (in words)” value in series [2] is on record as “weak inhibitory effect”.
